Columns and labels:
TST persulfide = TST persulfide (Homo sapiens, UniProt Q16762)
Procedure: Stopped-flow kinetic studies were performed on the isolated half-reactions between TST persulfide and sulfur acceptors. Preformed stocks of TST persulfide were used to monitor its reaction with sulfite or cyanide at varying pH at 25 °C. The reactions were followed by the changes in the intrinsic fluorescence of TST, taking advantage of the higher fluorescence in the thiol versus the persulfidated state, as reported for the bovine enzyme ([37]).
TST persulfide was exposed to a pseudo-first order excess of sulfite (15 and 75 μM) or cyanide (25 and 100 μM), and the increases in the intrinsic fluorescence were recorded (Fig. 5, A and B). Single exponential functions were fitted to the time courses. The kobs values were divided by the sulfite or cyanide concentration and the second order rate constants, kpH, were determined at each pH.
The persulfidated TST was diluted in ultrapure water in one of the stopped-flow syringes (1.6–2.0 μM, ∼ 2 mM Tris) and mixed with sulfite (30 and 150 μM) or cyanide (50 and 200 μM) prepared in the other syringe in ACES/Tris/ethanolamine buffer 2× in a pH range of 5.60 to 10.38, at 25 °C. The final concentrations were halved as a consequence of the stopped-flow mixing. The increase in intrinsic fluorescence due to thiol formation was recorded during 0.025 to 10 s depending on the time course. The final pH of the reaction mixtures was measured.

[1] = reported value; cited from earlier work
Human SQOR [2] = target: T1, Human SQOR (Homo sapiens, UniProt Q9Y6N5); details: potassium phosphate, pH 7.4, 4 °C; cited from earlier work
T1 construct: made in house

Human SQOR [3] = target: T1, Human SQOR; format: biochemical
Procedure: The acidity of the persulfidated SQOR was evaluated by the pH-dependence of the steady-state rates. For enzymes that catalyze reactions with one substrate, the kinetic parameter kcat/Km (specificity constant) is an apparent second-order rate constant that reports on the properties of the free enzyme and the free substrate ([32]). kcat/Km can be calculated from the kinetic parameters kcat and Km obtained from typical Michaelis–Menten analysis (Equation 1). […]
SQOR uses three substrates: H2S, a sulfur acceptor (Acc^−), and CoQ (Fig. 1A). At saturating concentrations of H2S and CoQ, the kcat/Km^Acc- represents the apparent rate constant for the reaction between the sulfur acceptor and the Cys379SSH of the bis-persulfidated SQOR, and its pH-dependency reports on the pKa of both free species. Although the pH dependence of human SQOR activity has been reported ([25]), the pH dependence of kcat/Km is unavailable. The steady-state rate of SQOR was determined by monitoring the reduction of coenzyme Q1 (CoQ1) at 278 nm at varying pH at 25 °C. […]. Therefore, in the experiments with cyanide, the reactions were started with cyanide instead of SQOR so that the contribution of SQOR with H2S alone could be subtracted.
In experiments with sulfite, steady-state time courses with varying concentrations of sulfite (0.01–8 mM) were recorded, and linear functions were fitted to the first 15 to 40 s following SQOR addition (Fig. 3A). The slope before SQOR addition was subtracted to correct for the background nonenzymatic reduction of CoQ1, which was minimal. From the hyperbolic fit of the activity versus sulfite concentration plot (Fig. 3B), the kinetic parameters kcat^sulfite and Km^sulfite were obtained, and the kcat/Km^sulfite for each pH were calculated. As expected, when the kcat/Km^sulfite were plotted against pH, a bell-shaped profile was obtained (Fig. 3C), consistent with a reaction between a deprotonated species and a protonated one. An equation with two pKa was fitted to the data (Equation 3), assuming that deprotonated sulfite and protonated SQOR persulfide were the reacting species. […]. […]
The steady-state rates were obtained from linear fits to the data during the first 4 to 20 s following cyanide addition, and the slopes before cyanide addition were subtracted. The kcat/Km^cyanide at each pH was calculated according to Equation 2 using the enzyme (50 nM) and cyanide (90 μM) initial concentrations. […]
Human SQOR was expressed and purified as reported previously ([24], [25]). SQOR concentration was determined from the FAD absorbance at 450 nm, using ε = 11,500 M^−1 cm^−1 ([25]). […]
The activity of SQOR was measured at different pHs in a temperature-controlled spectrophotometer (Shimadzu UV-2600 or UV-1900i). […]

Human TST = Human TST (Homo sapiens, UniProt Q16762); details: pH 7.03
Chain of Human TST (Q16762 whole entry): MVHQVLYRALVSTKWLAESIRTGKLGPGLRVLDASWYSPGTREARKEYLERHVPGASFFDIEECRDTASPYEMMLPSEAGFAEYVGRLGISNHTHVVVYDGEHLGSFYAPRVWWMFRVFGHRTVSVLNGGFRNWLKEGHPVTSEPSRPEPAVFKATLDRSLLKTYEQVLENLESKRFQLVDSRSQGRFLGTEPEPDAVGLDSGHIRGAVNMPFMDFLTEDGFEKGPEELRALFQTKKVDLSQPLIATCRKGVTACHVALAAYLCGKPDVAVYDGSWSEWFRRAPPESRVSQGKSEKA
Procedure: The activity of TST was measured at different pH values and 25 °C by the steady-state rate of thiocyanate formation. […] After 30 to 90 s, the reactions were stopped by removing 305 μl aliquots and mixing them with 20 μl of 38% formaldehyde (Biopack) and 25 μl of 140 mM FeCl3·6H2O (Sigma-Aldrich) diluted in 32.5% HNO3 (Dorwil). Absorbances at 460 nm (Varian Cary 60, Agilent) were recorded immediately and interpolated into a 0 to 30 μM thiocyanate calibration curve. The thiocyanate standards were prepared daily in ACES/Tris/ethanolamine buffer, pH 7.8, and underwent the same procedures as the samples ([1]).
After 220 s, 5 μl of 5 M NaOH were added, changing the pH to 8.5. The concentrations of thiocyanate produced at 252 and 310 s were measured as described.

[4] = system: human 3-mercaptopyruvate sulfurtransferase; parameters: method as in earlier work; details: cited from earlier work

T1 sequence (Q9Y6N5 whole entry): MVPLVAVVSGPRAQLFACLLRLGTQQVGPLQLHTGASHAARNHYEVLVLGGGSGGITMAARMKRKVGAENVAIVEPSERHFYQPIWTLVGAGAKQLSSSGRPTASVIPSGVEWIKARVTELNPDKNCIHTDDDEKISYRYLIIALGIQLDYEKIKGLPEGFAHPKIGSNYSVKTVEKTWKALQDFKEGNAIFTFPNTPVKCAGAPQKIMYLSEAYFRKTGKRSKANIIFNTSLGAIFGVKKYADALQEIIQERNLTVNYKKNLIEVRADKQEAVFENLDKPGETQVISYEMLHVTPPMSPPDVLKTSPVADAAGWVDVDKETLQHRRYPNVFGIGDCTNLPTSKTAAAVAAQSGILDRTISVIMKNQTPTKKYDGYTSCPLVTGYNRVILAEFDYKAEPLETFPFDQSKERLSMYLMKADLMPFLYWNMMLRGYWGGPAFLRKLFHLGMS
Chain of TST persulfide (Q16762 whole entry): as the sequence (Q16762 whole entry) above

O=S(O)O [sulfite]
pKa of the deprotonated species (sulfite) (TST persulfide): 6.89 ± 0.09
pKa [1]: 6.91
second-order rate constant between the enzyme CT complex and sulfite (Human SQOR [2]): 390000 M⁻¹ s⁻¹
Km (Human SQOR [3]; acetic/MES/Tris buffer containing 120 mM NaCl, pH 7.17, read-out: apparent Km^sulfite): 2400 ± 200 µM
pKa of the deprotonated species (sulfite) (Human SQOR [3]; fit of kcat/Km^sulfite of SQOR versus pH, 25 °C): 6.8 ± 0.5

B1: TST (protein, UniProt Q16762 2-297, looked up)
Thiosulfate sulfurtransferase: VHQVLYRALVSTKWLAESIRTGKLGPGLRVLDASWYSPGTREARKEYLERHVPGASFFDIEECRDTASPYEMMLPSEAGFAEYVGRLGISNHTHVVVYDGEHLGSFYAPRVWWMFRVFGHRTVSVLNGGFRNWLKEGHPVTSEPSRPEPAVFKATLDRSLLKTYEQVLENLESKRFQLVDSRSQGRFLGTEPEPDAVGLDSGHIRGAVNMPFMDFLTEDGFEKGPEELRALFQTKKVDLSQPLIATCRKGVTACHVALAAYLCGKPDVAVYDGSWSEWFRRAPPESRVSQGKSEKA
apparent pKa of steady-state activity (Human TST): 8.47 ± 0.06

B2: human 3-mercaptopyruvate sulfurtransferase: sulfurtransferase enzyme, literature thiol pKa (protein, UniProt P25325 2-297, looked up)
3-mercaptopyruvate …: ASPQLCRALVSAQWVAEALRAPRAGQPLQLLDASWYLPKLGRDARREFEERHIPGAAFFDIDQCSDRTSPYDHMLPGAEHFAEYAGRLGVGAATHVVIYDASDQGLYSAPRVWWMFRAFGHHAVSLLDGGLRHWLRQNLPLSSGKSQPAPAEFRAQLDPAFIKTYEDIKENLESRRFQVVDSRATGRFRGTEPEPRDGIEPGHIPGTVNIPFTDFLSQEGLEKSPEEIRHLFQEKKVDLSKPLVATCGSGVTACHVALGAYLCGKPDVPIYDGSWVEWYMRARPEDVISEGRGKTH
pKa of the thiol [4]: 5.2

— PMC11039317, “Acidity of persulfides and its modulation by the protein environments in sulfide quinone oxidoreductase and thiosulfate sulfurtransferase” (The Journal of Biological Chemistry, 2024)
